From US20210322545A1 (priority 2016, published 2021)

Test system: cancer cell lines
Format: cell-based

Substance | synergy with SMC using recombinant cytokines
IFNα | recapitulated
IFNγ | recapitulated
